US11753397B2, “Cereblon binders for the degradation of ikaros” (C4 Therapeutics, Inc., priority 2018, dated 2023)

Test system: NCIH929.1 cells
Experiment: Cell viability assay (CellTiter-Glo 2.0, ATP quantification)
Assay type: cell-based
Conditions: NCIH929.1 cell viability, CellTiter-Glo 2.0, 96 hr incubation, top concentration 1 μM
Outline: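 Read-out is CellTiter-Glo 2.0 luminescence (ATP), after 96 h compound exposure at 37 °C, with a day-0 plate giving the CT0 baseline. Duplicate 10-point half-log titration from 1 μM applied to 750 cells/well in RPMI, 10% FBS, 0.05 mM 2-mercaptoethanol.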

Row | Compound | GI50 [nM]
1 | O=C1CCC(N2C(=O)c3cccc(NCc4cnn(C5CCN(C(=O)C67CCC(C6)C7)CC5)c4)c3C2=O)C(=O)N1 (stereo not shown) [Compound 97, 4-(((1-(1-(bicyclo[2.1.1]hexane-1-carbonyl)piperidin-4-yl)-1H-pyrazol-4-yl)methyl)amino)-2-(2,6-dioxopiperidin-3-yl)isoindoline-1,3-dione] | < 100
2 | O=C1CCC(N2C(=O)c3cccc(NCc4cnn(C5CCN(C(=O)C6C7(CC7)C67CC7)CC5)c4)c3C2=O)C(=O)N1 (stereo not shown) [Compound 98, 2-(2,6-dioxopiperidin-3-yl)-4-(((1-(1-(dispiro[2.0.24.13]heptane-7-carbonyl)piperidin-4-yl)-1H-pyrazol-4-yl)methyl)amino)isoindoline-1,3-dione] | < 1
3 | CC(=O)NCC1CCC(C(=O)N2CCC(n3cc(CNc4cccc5c4C(=O)N(C4CCC(=O)NC4=O)C5=O)cn3)CC2)CC1 (stereo not shown) [Compound 99, N-((4-(4-(4-(((2-(2,6-dioxopiperidin-3-yl)-1,3-dioxoisoindolin-4-yl)amino)methyl)-1H-pyrazol-1-yl)piperidine-1-carbonyl)cyclohexyl)methyl)acetamide] | < 100
4 | O=C1CCC(N2C(=O)c3cccc(NCc4cnn(C5CCN(C(=O)C6CCN(c7ccccn7)CC6)CC5)c4)c3C2=O)C(=O)N1 (stereo not shown) [Compound 100, 2-(2,6-dioxopiperidin-3-yl)-4-(((1-(1-(1-(pyridin-2-yl)piperidine-4-carbonyl)piperidin-4-yl)-1H-pyrazol-4-yl)methyl)amino)isoindoline-1,3-dione] | < 1
5 | O=C1CCC(N2C(=O)c3cccc(NCc4cnn(C5CCN(C(=O)C6CCN(C(=O)c7ccccc7)CC6)CC5)c4)c3C2=O)C(=O)N1 (stereo not shown) [Compound 101, 4-(((1-(1-(1-benzoylpiperidine-4-carbonyl)piperidin-4-yl)-1H-pyrazol-4-yl)methyl)amino)-2-(2,6-dioxopiperidin-3-yl)isoindoline-1,3-dione] | < 100
6 | CC(C)(C)OC(=O)N1CCC(F)(C(=O)N2CCC(n3cc(CNc4cccc5c4C(=O)N(C4CCC(=O)NC4=O)C5=O)cn3)CC2)CC1 (stereo not shown) [Compound 102, tert-butyl 4-(4-(4-(((2-(2,6-dioxopiperidin-3-yl)-1,3-dioxoisoindolin-4-yl)amino)methyl)-1H-pyrazol-1-yl)piperidine-1-carbonyl)-4-fluoropiperidine-1-carboxylate] | < 100
7 | COc1ccc(-c2cc(C(=O)N3CCC(n4cc(CNc5cccc6c5C(=O)N(C5CCC(=O)NC5=O)C6=O)cn4)CC3)ccn2)cc1 (stereo not shown) [Compound 103, 2-(2,6-dioxopiperidin-3-yl)-4-(((1-(1-(2-(4-methoxyphenyl)isonicotinoyl)piperidin-4-yl)-1H-pyrazol-4-yl)methyl)amino)isoindoline-1,3-dione] | < 100
8 | Cc1cccc2c(CC(=O)N3CCC(n4cc(CNc5cccc6c5C(=O)N(C5CCC(=O)NC5=O)C6=O)cn4)CC3)noc12 (stereo not shown) [Compound 104, 2-(2,6-dioxopiperidin-3-yl)-4-(((1-(1-(2-(7-methylbenzo[d]isoxazol-3-yl)acetyl)piperidin-4-yl)-1H-pyrazol-4-yl)methyl)amino)isoindoline-1,3-dione] | < 1
9 | Cc1oc(-c2cccc(F)c2)nc1CC(=O)N1CCC(n2cc(CNc3cccc4c3C(=O)N(C3CCC(=O)NC3=O)C4=O)cn2)CC1 (stereo not shown) [Compound 105, 2-(2,6-dioxopiperidin-3-yl)-4-(((1-(1-(2-(2-(3-fluorophenyl)-5-methyloxazol-4-yl)acetyl)piperidin-4-yl)-1H-pyrazol-4-yl)methyl)amino)isoindoline-1,3-dione] | < 100
10 | O=C1CCC(N2C(=O)c3cccc(NCc4cnn(C5CCN(C(=O)Cc6ccc(-c7ccc(F)cc7)cc6)CC5)c4)c3C2=O)C(=O)N1 (stereo not shown) [Compound 106, 2-(2,6-dioxopiperidin-3-yl)-4-(((1-(1-(2-(4′-fluoro-[1,1′-biphenyl]-4-yl)acetyl)piperidin-4-yl)-1H-pyrazol-4-yl)methyl)amino)isoindoline-1,3-dione] | < 100
11 | O=C1CCC(N2C(=O)c3cccc(NCc4cnn(C5CCN(C(=O)C6CCN(C(=O)C7CCCC7)CC6)CC5)c4)c3C2=O)C(=O)N1 (stereo not shown) [Compound 107, 4-(((1-(1-(1-(cyclopentanecarbonyl)piperidine-4-carbonyl)piperidin-4-yl)-1H-pyrazol-4-yl)methyl)amino)-2-(2,6-dioxopiperidin-3-yl)isoindoline-1,3-dione] | < 100
12 | O=C1CCC(N2C(=O)c3cccc(NCc4cnn(C5CCN(C(=O)c6cccc(C#Cc7ccccc7)c6)CC5)c4)c3C2=O)C(=O)N1 (stereo not shown) [Compound 108, 2-(2,6-dioxopiperidin-3-yl)-4-(((1-(1-(3-(phenylethynyl)benzoyl)piperidin-4-yl)-1H-pyrazol-4-yl)methyl)amino)isoindoline-1,3-dione] | < 100
13 | O=C1CCC(N2C(=O)c3cccc(NCc4cnn(C5CCN(C(=O)C6CCN(C(=O)C7CCOCC7)CC6)CC5)c4)c3C2=O)C(=O)N1 (stereo not shown) [Compound 109, 2-(2,6-dioxopiperidin-3-yl)-4-(((1-(1-(1-(tetrahydro-2H-pyran-4-carbonyl)piperidine-4-carbonyl)piperidin-4-yl)-1H-pyrazol-4-yl)methyl)amino)isoindoline-1,3-dione] | < 100
14 | Cc1ccc(OC(C)(C)C(=O)N2CCC(n3cc(CNc4cccc5c4C(=O)N(C4CCC(=O)NC4=O)C5=O)cn3)CC2)cc1C (stereo not shown) [Compound 110, 4-(((1-(1-(2-(3,4-dimethylphenoxy)-2-methylpropanoyl)piperidin-4-yl)-1H-pyrazol-4-yl)methyl)amino)-2-(2,6-dioxopiperidin-3-yl)isoindoline-1,3-dione] | < 100
15 | COCC(=O)N1CCC(C(=O)N2CCC(n3cc(CNc4cccc5c4C(=O)N(C4CCC(=O)NC4=O)C5=O)cn3)CC2)CC1 (stereo not shown) [Compound 111, 2-(2,6-dioxopiperidin-3-yl)-4-(((1-(1-(1-(2-methoxyacetyl)piperidine-4-carbonyl)piperidin-4-yl)-1H-pyrazol-4-yl)methyl)amino)isoindoline-1,3-dione] | < 100
16 | O=C1CCC(N2C(=O)c3cccc(NCc4cnn(C5CCN(C(=O)C6CCN(C(=O)C7CCC7)CC6)CC5)c4)c3C2=O)C(=O)N1 (stereo not shown) [Compound 112, 4-(((1-(1-(1-(cyclobutanecarbonyl)piperidine-4-carbonyl)piperidin-4-yl)-1H-pyrazol-4-yl)methyl)amino)-2-(2,6-dioxopiperidin-3-yl)isoindoline-1,3-dione] | < 100
17 | O=C1CCC(N2C(=O)c3cccc(NCc4cnn(C5CCN(C(=O)C6CCN(C(=O)Cc7ccccc7)CC6)CC5)c4)c3C2=O)C(=O)N1 (stereo not shown) [Compound 113, 2-(2,6-dioxopiperidin-3-yl)-4-(((1-(1-(1-(2-phenylacetyl)piperidine-4-carbonyl)piperidin-4-yl)-1H-pyrazol-4-yl)methyl)amino)isoindoline-1,3-dione] | < 100
18 | CCc1ccc2c(CC(=O)N3CCC(n4cc(CNc5cccc6c5C(=O)N(C5CCC(=O)NC5=O)C6=O)cn4)CC3)coc2c1 (stereo not shown) [Compound 114, 2-(2,6-dioxoopiperidin-3-yl)-4-(((1-(1-(2-(6-ethylbenzofuran-3-yl)acetyl)piperidin-4-yl)-1H-pyrazol-4-yl)methyl)amino)isoindoline-1,3-dione] | < 100
19 | Cc1cccc(-c2nc(CC(=O)N3CCC(n4cc(CNc5cccc6c5C(=O)N(C5CCC(=O)NC5=O)C6=O)cn4)CC3)c(C)o2)c1 (stereo not shown) [Compound 115, 2-(2,6-dioxopiperidin-3-yl)-4-(((1-(1-(2-(5-methyl-2-(m-tolyl)oxazol-4-yl)acetyl)piperidin-4-yl)-1H-pyrazol-4-yl)methyl)amino)isoindoline-1,3-dione] | < 100
20 | O=C1CCC(N2C(=O)c3cccc(NCc4cnn(C5CCN(C(=O)Cc6coc(-c7ccccc7)n6)CC5)c4)c3C2=O)C(=O)N1 (stereo not shown) [Compound 116, 2-(2,6-dioxopiperidin-3-yl)-4-(((1-(1-(2-(2-phenyloxazol-4-yl)acetyl)piperidin-4-yl)-1H-pyrazol-4-yl)methyl)amino)isoindoline-1,3-dione] | < 100
21 | O=C1CCC(N2C(=O)c3cccc(NCc4cnn(C5CCN(C(=O)CC6CCC(c7ccccc7)CC6)CC5)c4)c3C2=O)C(=O)N1 (stereo not shown) [Compound 117, 2-(2,6-dioxopiperidin-3-yl)-4-(((1-(1-(2-(4-phenylcyclohexyl)acetyl)piperidin-4-yl)-1H-pyrazol-4-yl)methyl)amino)isoindoline-1,3-dione] | < 100
22 | Cc1ccc(N2CCC(C(=O)N3CCC(n4cc(CNc5cccc6c5C(=O)N(C5CCC(=O)NC5=O)C6=O)cn4)CC3)CC2)nc1 (stereo not shown) [Compound 118, 2-(2,6-dioxopiperidin-3-yl)-4-(((1-(1-(1-(5-methylpyridin-2-yl)piperidine-4-carbonyl)piperidin-4-yl)-1H-pyrazol-4-yl)methyl)amino)isoindoline-1,3-dione] | < 1
23 | O=C1CCC(N2C(=O)c3cccc(NCc4cnn(C5CCN(C(=O)c6cccc(Cn7cccn7)c6)CC5)c4)c3C2=O)C(=O)N1 (stereo not shown) [Compound 119, 4-(((1-(1-(3-((1H-pyrazol-1-yl)methyl)benzoyl)piperidin-4-yl)-1H-pyrazol-4-yl)methyl)amino)-2-(2,6-dioxopiperidin-3-yl)isoindoline-1,3-dione] | < 100
24 | O=C1CCC(N2C(=O)c3cccc(NCc4cnn(C5CCN(C(=O)Cc6cnn(-c7ccccc7)c6)CC5)c4)c3C2=O)C(=O)N1 (stereo not shown) [Compound 120, 2-(2,6-dioxopiperidin-3-yl)-4-(((1-(1-(2-(1-phenyl-1H-pyrazol-4-yl)acetyl)piperidin-4-yl)-1H-pyrazol-4-yl)methyl)amino)isoindoline-1,3-dione] | < 100
25 | CC(C)(C)OC(=O)N1CCC(C(=O)N2CCC(n3cc(CNc4cccc5c4C(=O)N(C4CCC(=O)NC4=O)C5=O)cn3)CC2)CC1 (stereo not shown) [Compound 121, tert-butyl 4-(4-(4-(((2-(2,6-dioxopiperidin-3-yl)-1,3-dioxoisoindolin-4-yl)amino)methyl)-1H-pyrazol-1-yl)piperidine-1-carbonyl)piperidine-1-carboxylate] | < 100
